One test concerns lamin B. The experiment in a line: lamin B staining in in situ nuclear matrix preparations. It is filed as cell-based. The settings on record: nuclear matrix prepared in situ, exposure to DTT. The procedure: (§1) Immunofluorescence, electronic microscopy and antibodies were previously described^15. In situ nuclear matrix preparations were prepared as described^1. Confocal analyses were performed on a LSM510 Meta laser microscope (Carl Zeiss MicroImaging, Inc.) with a plan apochromat 63X N.A.1.4 oil immersion objective and increased resolution images were obtained with deconvolution software (Autodeblur, Image Quant) using blind iterative algorithms.
The mouse anti-GFP antibody was from Roche Applied Science; Goat polyclonal anti-Lamin B (M20), rabbit polyclonal anti-RXRa (D20) and anti-Daxx (M-112) were from Santa Cruz Biotechnology. Rabbit polyclonal anti-Daxx from G. Grosveld was used for Western blot analysis. Anti SUMO-1 (mouse monoclonal anti GMP-1 antibody) and Rabbit polyclonal anti-SUMO-2/3 antibodies were from Zymed Laboratories. Rabbit polyclonal anti-RARA115 was a kind gift of Pierre Chambon. […] Fluorescence was quantified with ImageJ software.
(§2) Intermolecular disulfide bonds were previously implicated in stabilization of the nuclear matrix. […] We then compared total and nuclear matrix extracts from transiently transfected CHO cells under non-reducing conditions and observed that the matrix fraction was dramatically enriched in covalent PML dimers.
The matrix-associated PML fraction is hypersumoylated. […]

In another test the target is T1, PML NBs (Homo sapiens, UniProt P29590).
T1 construct: endogenous in cells
T1 sequence (P29590 1-882): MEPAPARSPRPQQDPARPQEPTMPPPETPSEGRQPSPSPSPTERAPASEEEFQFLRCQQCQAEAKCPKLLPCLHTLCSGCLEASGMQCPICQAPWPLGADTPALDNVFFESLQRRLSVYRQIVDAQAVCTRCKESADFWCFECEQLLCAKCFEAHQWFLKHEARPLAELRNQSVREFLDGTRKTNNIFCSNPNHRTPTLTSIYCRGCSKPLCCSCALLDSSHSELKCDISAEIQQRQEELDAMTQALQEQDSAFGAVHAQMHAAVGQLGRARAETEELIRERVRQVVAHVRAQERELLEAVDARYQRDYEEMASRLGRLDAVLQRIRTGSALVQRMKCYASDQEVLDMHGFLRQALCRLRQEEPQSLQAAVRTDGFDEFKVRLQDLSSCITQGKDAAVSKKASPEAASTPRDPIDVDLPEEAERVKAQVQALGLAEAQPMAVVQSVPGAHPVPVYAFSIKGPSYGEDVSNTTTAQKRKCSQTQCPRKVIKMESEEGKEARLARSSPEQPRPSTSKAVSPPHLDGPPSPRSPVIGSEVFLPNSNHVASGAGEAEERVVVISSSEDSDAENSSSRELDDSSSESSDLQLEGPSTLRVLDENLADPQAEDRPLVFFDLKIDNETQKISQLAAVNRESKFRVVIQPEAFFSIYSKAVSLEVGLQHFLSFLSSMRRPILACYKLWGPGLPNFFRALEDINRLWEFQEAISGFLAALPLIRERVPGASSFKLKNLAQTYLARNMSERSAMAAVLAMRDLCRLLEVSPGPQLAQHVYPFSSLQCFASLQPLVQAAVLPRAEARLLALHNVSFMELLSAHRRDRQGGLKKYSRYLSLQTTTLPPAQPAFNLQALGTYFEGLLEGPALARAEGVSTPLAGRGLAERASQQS
The experiment in a line: PML NB labelling in in situ nuclear matrix preparations (immunofluorescence). It is filed as cell-based. Particulars: nuclear matrix prepared in situ, exposure to DTT. The procedure:
as §1, §2
The matrix-associated PML fraction is hypersumoylated. Conversely, deletion of the coiled-coil of PML abrogates its association to the nuclear matrix, NB formation, and sumoylation. Thus, whereas As2O3 induces PML targeting to the matrix and NB formation independently of sumoylation, matrix association contributes to basal or As2O3-enhanced PML sumoylation. We therefore questioned how As2O3 could promote transfer from soluble diffuse nuclear PML to insoluble, matrix-associated NBs. As2O3 controls protein phosphorylation and ROS production. […]

The structures appear in SMILES notation. Entries after “also recorded” stand apart in the source; their conditions may differ.

In the case of `O[C@@H](CS)[C@@H](O)CS` [DTT], in the test on lamin B, the “lamin B staining” value is “unaffected; also recorded: without affecting lamin-B staining”. Besides, the “PML NB labelling in in situ nuclear matrix” value at PML NBs is reported as “PML NB labelling was lost; also recorded: disrupted endogenous PML NBs”.

For the origin of these results see patent US9228998B2, “Drug monitoring methods using the promyelocytic leukemia protein as a redox sensor” (Institut National de la Sante et de la Recherche Medicale …, priority 2010, dated 2016).
